Reference: article PMC10099721, “Substrate Induced Movement of the Metal Cofactor between Active and Resting State” (Angewandte Chemie (International Ed. in English), 2022)

How the values were obtained:
Type in all cases: binding
[1] = biological target: T1, SwHKA (hydroxyketoacid aldolase from Sphingomonas wittichii RW1) (Rhizorhabdus wittichii, UniProt A0A9J9HGY6, S116C); test: nanoDSF melting temperature; conditions: absolute Tm, not a shift; MgCl2 10 mM, hydroxypyruvate 20 mM, Hepes 20 mM pH 7.5
T1 construct: gene Swit_5035; N-terminal His6-tag, E. coli BL21(DE3), 251 residues per monomer, homohexamer (trimer of domain-swapped dimers), divalent metal dependent
T1 sequence (A0A9J9HGY6 whole entry S116C, the tested form may be a part): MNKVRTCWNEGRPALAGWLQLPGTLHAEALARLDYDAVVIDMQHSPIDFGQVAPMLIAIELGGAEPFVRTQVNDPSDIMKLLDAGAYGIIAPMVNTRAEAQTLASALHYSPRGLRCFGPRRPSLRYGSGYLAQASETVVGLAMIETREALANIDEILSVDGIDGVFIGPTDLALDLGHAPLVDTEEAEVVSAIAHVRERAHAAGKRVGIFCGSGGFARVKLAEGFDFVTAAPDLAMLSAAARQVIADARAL

[2] = biological target: T2, SwHKA (hydroxyketoacid aldolase from Sphingomonas wittichii RW1) (Rhizorhabdus wittichii, UniProt A0A9J9HGY6, S116A); test: X-ray crystal structure; conditions: bound to the active-state metal, distorted geometry
T2 construct: gene Swit_5035; N-terminal His6-tag, E. coli BL21(DE3), 251 residues per monomer, homohexamer (trimer of domain-swapped dimers), divalent metal dependent
T2 sequence (A0A9J9HGY6 whole entry S116A, the tested form may be a part): as the sequence (A0A9J9HGY6 whole entry S116C, the tested form may be a part) above, with C116A counted along it

[3] = biological target: T3, SwHKA (hydroxyketoacid aldolase from Sphingomonas wittichii RW1) (Rhizorhabdus wittichii, UniProt A0A9J9HGY6, F210W); test: X-ray crystal structure, […] A, soaked crystal; conditions: MgCl2 soak; bound in monomer B only; PDB id printed as 7OBU in the text but 7O87 (as F201W-HPA) in the Figure 2 legend
T3 construct: gene Swit_5035; N-terminal His6-tag, E. coli BL21(DE3), 251 residues per monomer, homohexamer (trimer of domain-swapped dimers), divalent metal dependent
T3 sequence (A0A9J9HGY6 whole entry F210W, the tested form may be a part): as the sequence (A0A9J9HGY6 whole entry S116C, the tested form may be a part) above, with C116S, F210W counted along it

[4] = biological target: T4, SwHKA (hydroxyketoacid aldolase from Sphingomonas wittichii RW1) (Rhizorhabdus wittichii, UniProt A0A9J9HGY6); test: X-ray crystal structure; conditions: with hydroxypyruvate in the active site; H-bonds to R69 and R120'
T4 construct: gene Swit_5035; N-terminal His6-tag, E. coli BL21(DE3), 251 residues per monomer, homohexamer (trimer of domain-swapped dimers), divalent metal dependent
T4 sequence (A0A9J9HGY6 whole entry, the tested form may be a part): as the sequence (A0A9J9HGY6 whole entry S116C, the tested form may be a part) above, with C116S counted along it

Row | Structure (SMILES) | Tm [1] [°C] | X-ray crystal structure [2] | X-ray crystal structure, 1.2 A, soaked crystal [3] | X-ray crystal structure [4]
1 | O=C(O)C(=O)CO [hydroxypyruvate] | 73 | showed a strangely distorted geometry (Figure S13, S116A‐HPA PDBID 7NNK) | crystal structure of variant F210W soaked with MgCl2 and hydroxypyruvate could now be solved | –
2 | O=C[C@H](O)CO [D-glyceraldehyde] | – | – | – | Close‐up view of the active site of SwHKA with DGA bound (PDBID 8ADQ)
